Experimental data: patent EP4800015A1, “AZABICYCLO DERIVATIVE AND PREPARATION METHOD THEREFOR, AND USE” (Zhejiang Hisun Pharmaceutical Co., Ltd., priority 2023, dated 2025)

What follows are compounds tested against T1, recombinant human WRN (Homo sapiens, UniProt Q14191) (assay: Inhibition of WRN enzyme activity (ATPase), ADP-Glo Kinase Assay). Settings: WRN protein 5 nM, Flap 0.1 nM, ATP 30 µM.
T1 construct: purchased BPS 101264
Format: biochemical
Excerpt: The following method was used to determine the degree of inhibition of recombinant human WRN ATPase activity by the compounds of the present disclosure in vitro. In this method, ADP-Glo™ Kinase Assay kit (catalog No. V9102) from Promega was used. Detailed experimental procedures can be found in the kit manual.
The experimental procedure was briefly described as follows: test compounds were first dissolved in DMSO to prepare stock solutions, followed by serial dilution using reaction buffer (30 mM Tris, pH 7.5, 2 mM MgCl2, 50 mM NaCl, 0.02% BSA, 0.1% Pluronic F127), with final concentrations of test compounds in the reaction system ranging from 1000 nM to 0.004 nM; WRN protein (purchased from BPS, catalog No. 101264), substrate 5-flap oligonucleotide (Flap26) (synthesized by Shanghai Generay Biotech Co., Ltd., sequence 5'-[…]-3'), and ATP working solution (from ADP-Glo™ Kinase Assay kit component V915A) were prepared using reaction buffer. Reactions were performed in 384-well microplates. At first the compounds and recombinant human WRN protein (final concentration 5 nM) were added to the wells and the plate was incubated at room temperature for 15 minutes, then Flap solution (final concentration 0.1 nM) and ATP solution (final concentration 30 µM) were added to the reaction solution and the plate was incubated at room temperature for 10 minutes. Subsequently, 5 µL of ADP-Glo Reagent was added to the reaction system and incubated at room temperature for 40 minutes. Then 10 µL of Kinase Detection Reagent was added to the reaction system and incubated at room temperature for 30 minutes. After the incubation was completed, chemiluminescence intensity values of each well were measured using a microplate reader in luminescence mode. The percentage inhibition of the compounds at each concentration was calculated by comparison with the luminescence intensity values of the control group (0.1% DMSO), and IC50 values of compounds were obtained by nonlinear regression analysis of compound concentration logarithm-inhibition rate using GraphPad Prism 9 software, as shown in Table 1.
The IC50 value results of the compounds of the present disclosure are expressed as AA and A, respectively as follows: "AA" indicates IC50 ≤ 1 nM; "A" indicates 1 nM < IC50 ≤ 100 nM. Table 1 IC50 of the compounds of the present disclosure for inhibiting WRN enzyme activity (ATPase)

T1 sequence (Q14191 whole entry): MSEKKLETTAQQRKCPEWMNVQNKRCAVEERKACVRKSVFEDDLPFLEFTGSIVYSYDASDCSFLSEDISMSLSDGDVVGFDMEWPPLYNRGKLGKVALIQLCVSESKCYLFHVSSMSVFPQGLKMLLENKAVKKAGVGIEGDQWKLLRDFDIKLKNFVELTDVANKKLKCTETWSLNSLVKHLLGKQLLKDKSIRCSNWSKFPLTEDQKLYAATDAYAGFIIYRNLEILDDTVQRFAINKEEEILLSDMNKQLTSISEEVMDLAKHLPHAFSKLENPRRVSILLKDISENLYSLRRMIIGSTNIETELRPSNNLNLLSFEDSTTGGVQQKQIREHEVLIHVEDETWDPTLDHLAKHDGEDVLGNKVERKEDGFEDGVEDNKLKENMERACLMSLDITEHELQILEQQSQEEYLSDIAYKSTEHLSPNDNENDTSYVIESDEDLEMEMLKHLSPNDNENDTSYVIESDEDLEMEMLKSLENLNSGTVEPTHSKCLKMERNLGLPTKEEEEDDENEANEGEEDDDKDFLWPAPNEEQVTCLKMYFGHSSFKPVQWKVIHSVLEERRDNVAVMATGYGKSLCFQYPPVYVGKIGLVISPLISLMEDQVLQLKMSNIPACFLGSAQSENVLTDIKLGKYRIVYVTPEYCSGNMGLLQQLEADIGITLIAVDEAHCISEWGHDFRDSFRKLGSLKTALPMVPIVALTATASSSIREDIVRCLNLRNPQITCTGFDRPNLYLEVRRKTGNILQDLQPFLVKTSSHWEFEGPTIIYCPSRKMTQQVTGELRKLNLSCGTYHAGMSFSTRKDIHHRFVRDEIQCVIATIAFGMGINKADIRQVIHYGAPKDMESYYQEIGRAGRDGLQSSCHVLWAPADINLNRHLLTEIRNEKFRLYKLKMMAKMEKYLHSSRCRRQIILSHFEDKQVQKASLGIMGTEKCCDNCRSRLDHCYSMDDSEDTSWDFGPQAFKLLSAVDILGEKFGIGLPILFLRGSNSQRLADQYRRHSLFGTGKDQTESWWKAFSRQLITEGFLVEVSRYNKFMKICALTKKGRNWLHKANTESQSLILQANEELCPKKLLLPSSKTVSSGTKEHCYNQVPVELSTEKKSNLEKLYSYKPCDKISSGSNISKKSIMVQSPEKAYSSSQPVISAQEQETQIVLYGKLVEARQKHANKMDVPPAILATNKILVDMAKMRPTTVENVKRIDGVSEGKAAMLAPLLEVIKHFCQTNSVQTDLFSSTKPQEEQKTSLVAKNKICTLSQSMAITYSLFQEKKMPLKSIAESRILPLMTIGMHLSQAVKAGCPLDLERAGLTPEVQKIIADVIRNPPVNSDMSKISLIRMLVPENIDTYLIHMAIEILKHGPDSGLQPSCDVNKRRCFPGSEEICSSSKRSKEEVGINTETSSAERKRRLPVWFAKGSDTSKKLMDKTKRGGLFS

Structure (SMILES)	IC50 [nM]
C=C(c1ccc(OC)cc1)c1nc2n(CC(=O)Nc3ccc(C(F)(F)F)cc3Cl)c(CC)c(N3CCN(C(=O)c4ncnc(C)c4O)CC3)c(=O)n2n1 [Example 83, N-(2-chloro-4-(trifluoromethyl)phenyl)-2-(5-ethyl-6-(4-(5-hydroxy-6-methylpyrimidine-4-carbonyl)piperazin-1-yl)-2-(1-(4-methoxyphenyl)vinyl)-7-oxo-[1,2,4]triazolo[1,5-a]pyrimidin-4(7H)-yl) acetamide]	1 to 100

Same assay, conditions: WRN protein 5 nM, Flap 0.1 nM, ATP 30 µM; read-out: IC50

IC50 [nM]	Structure (SMILES)
1 to 100	CCc1c(N2CCN(C(=O)c3ncnc(C)c3O)CC2)c(=O)n2nc(C3=CC4(CCNCC4)C3)nc2n1CC(=O)Nc1ccc(C(F)(F)F)cc1Cl [Example 143, N-(2-chloro-4-(trifluoromethyl)phenyl)-2-(5-ethyl-6-(4-(5-hydroxy-6-methylpyrimidine-4-carbonyl)piperazin-1-yl)-7-oxo-2-(7-azaspiro[3.5]non-1-en-2-yl)-[1,2,4]triazolo[1,5-a]pyrimidin-4(7H)-yl)acetamide]
1 to 100	CCc1c(N2CCN(C(=O)c3ncnc(C)c3O)CC2)c(=O)n2nc(C(C)C)nc2n1CC(=O)Nc1ccc(C(F)(F)F)cc1Cl [Example 5, N-(2-chloro-4-(trifluoromethyl)phenyl)-2-(5-ethyl-6-(4-(5-hydroxy-6-methylpyrimidine-4-carbonyl)piperazin-1-yl)-2-isopropyl-7-oxo-[1,2,4]triazolo[1,5-a]pyrimidin-4(7H)-yl)acetamide]
1 to 100	[2H]C([2H])([2H])Sc1ccc(NC(=O)Cn2c(CC)c(N3CCN(C(=O)c4ncnc(C)c4O)CC3)c(=O)n3nc(C4=CC5CC5C4)nc23)cc1 (centres unmarked) [Example 181, 2-(2-(Bicyclo[3.1.0]hex-2-en-3-yl)-5-ethyl-6-(4-(5-hydroxy-6-methylpyrimidine-4-carbonyl)piperazin-1-yl)-7-oxo-[1,2,4]triazolo[1,5-a]pyrimidin-4(7H)-yl)-N-(4-((methyl-d3)thio)phenyl)acetamide]
< 1	CCc1c(N2CCN(C(=O)c3ncnc(C)c3O)CC2)c(=O)n2nc(C3=CCCCCC3)nc2n1CC(=O)Nc1ccc(OC(F)(F)F)cc1 [Example 95, 2-(2-(cyclohept-1-en-1-yl)-5-ethyl-6-(4-(5-hydroxy-6-methylpyrimidine-4-carbonyl)piperazin-1-yl)-7-oxo-[1,2,4]triazolo[1,5-a]pyrimidin-4(7H)-yl)-N-(4-(trifluoromethoxy)phenyl)acetamide]
1 to 100	CCc1c(N2CCN(C(=O)c3ncncc3O)CC2)c(=O)n2nc(C3=CC4COCC4C3)nc2n1CC(=O)Nc1ccc(C(F)(F)F)cc1Cl (centres unmarked) [Example 160, N-(2-chloro-4-(trifluoromethyl)phenyl)-2-(5-ethyl-6-(4-(5-hydroxypyrimidine-4-carbonyl)piperazin-1-yl)-7-oxo-2-(3,3a,4,6a-tetrahydro-1H-cyclopenta[c]furan-5-yl)-[1,2,4]triazolo[1,5-a]pyrimidin-4(7H)-yl)acetamide]
1 to 100	CCc1c(N2CCN(C(=O)c3ncnc(C)c3O)CC2)c(=O)n2nc(C3=CC4COCC4C3)nc2n1CC(=O)Nc1ccc(S(F)(F)(F)(F)F)cc1 (centres unmarked) [Example 189, 2-(5-ethyl-6-(4-(5-hydroxy-6-methylpyrimidine-4-carbonyl)piperazin-1-yl)-7-oxo-2-(3,3a,4,6a-tetrahydro-1H-cyclopenta[c]furan-5-yl)-[1,2,4]triazolo[1,5-a]pyrimidin-4(7H)-yl)-N-(4-(pentafluor o-λ^6-sulfaneyl)phenyl)acetamide]
1 to 100	CCc1c(N2CCN(C(=O)c3ncnc(C)c3O)CC2)c(=O)n2nc(/C=C/C(=O)N3CCC3)nc2n1CC(=O)Nc1ccc(C(F)(F)F)cc1Cl [Example 194, (E)-2-(2-(3-(azetidin-1-yl)-3-oxoprop-1-en-1-yl)-5-ethyl-6-(4-(5-hydroxy-6-methylpyrimidine-4-carbonyl)piperazin-1-yl)-7-oxo-[1,2,4]triazolo[1,5-a]pyrimidin-4(7H)-yl)-N-(2-chloro-4-(trifluor omethyl)phenyl)acetamide]
